Results: patent publication US20190125735A1, “INHIBITION OF P38 MAPK FOR THE TREATMENT OF CANCER” (Board of Regents, The University of Texas System, priority 2015, published 2019)

Columns and labels:
DU145 cells = assay: DU145 subcutaneous tumors in NOD/SCID mice; type: in vivo; conditions: subcutaneous dosing 5 days/week; SB203580 0.2 μmols per mouse, Enzalutamide 10 mg/kg; vs vehicle
Experimental: To investigate the effect of inhibition of FOXC2-dependent EMT/CSC attributes on tumor formation in vivo, NOD/SCID mice were subcutaneously injected with DU145 cells and began treatment in vivo, after formation of palpable tumors.
Immediately after sacrificing the mice, ˜100 μl blood was isolated via venipuncture in EDTA-treated collection tubes and stored on ice. Within 30 minutes, the blood was spun down at 1200 rpm for 5 minutes, and the pellet resuspended in 1 ml ACK-lysing buffer (Life Tech) and further incubated for 3-5 minutes. Cells were washed once with PBS, resuspended in RPMI with 10% FBS and pen/strep, and cultured on 10 cm tissue culture dishes. RFP-positive colonies (originating from the labeled DU145 cells injected into mice) were counted after 3-4 days in culture and quantified.
˜4 week-old male NOD.CB17-Prkdcscid/J mice were purchased from the Jackson Laboratory (Maine, USA). […] Once palpable tumors were discernable, tumor-bearing mice were randomly segregated into 4 groups, and drug treatment was initiated every 24 hours for 5 days/week. […] Investigators were blinded to the group allocation while assessing experimental outcomes. At the end of the treatment period, tumors were excised, average diameter calculated using calipers, and tumor weight noted. […]

mouse BCR-ABL+ ALL cells = assay: BCR-ABL+ ALL model in NOD-SCID mice; type: in vivo; conditions: dasatinib 10 mg/kg oral, dexamethasone 1 mg/kg oral, SB203580 40 mg/kg i.p.; treatment from day 5
Text: Leukemia progression was monitored by both bioluminescence imaging and quantifying mCherry+ ALL cells in peripheral blood samples by flow cytometry. […] Non-obese diabetic severe combined immunodeficient (NOD-SCID) mice were housed under high-barrier conditions in the Department of Veterinary Medicine and Surgery at MD Anderson. To generate the in vivo leukemia model, six to eight weeks old NOD-SCID mice were intravenously injected with luciferase- and mCherry-expressing BCR-ABL+ mouse leukemic cells (2×10^6 cells); engraftment of the transplanted cells was confirmed by bioluminescence imaging. For bioluminescence imaging, each mouse was intraperitoneally injected with D-Luciferin (150 mg/kg) and imaged using the IVIS Lumina imaging system (PerkinElmer).
Leukemia treatment started 5 days after transplantation. […] Treatment was continued until mice were succumbed to disease.
Bone marrow samples from the mice were harvested 4 days after initiating the drug treatment. […] Peripheral blood specimens were directly harvested from mice tail tips into PBS supplemented with ethylenediaminetetraacetic acid (2 mM). Red blood cells were subjected to lysis and were neutralized with 20% fetal bovine serum supplemented with alpha minimum essential medium. mCherry+ leukemic cells in the peripheral blood were detected by flow cytometry analysis after red blood cells were lysed.

MCF10A cells = assay: TGFβ1-induced EMT in MCF10A cells, immunoblotting; type: cell-based, human; conditions: TGFβ1-treated MCF10A, concomitant SB203580, 3 days
Experimental: To ascertain whether inhibiting p38 impedes the initiation of EMT, two dynamic models of EMT induction were utilized. First, MCF10A immortalized human mammary epithelial cells were treated with TGFβ1 which elicits EMT. […] Second, an inducible EMT system was used wherein a fusion protein, comprising the EMT-inducing transcription factors Snail or Twist and the estrogen-binding domain of the estrogen receptor (ER), is stably expressed in epithelial HMLE cells (HMLE-Snail-ER, HMLE-Twist-ER). Addition of the ER-ligand tamoxifen (4-OHT) promotes nuclear translocation of the Snail-ER and Twist-ER proteins and elicits EMT. […] Similarly, p38 shRNA abolished the capacity of HMLE-Twist-ER cells to undergo EMT (FIG. 4E, compare lanes 4 to 8) and to form spheres (FIG. 16F) in response to 4-OHT treatment.
Immortalized human mammary epithelial (HMLE) cells expressing empty vector (pWZL), Snail, Twist, Goosecoid (GSC), or an activated form of TGFβ1, V12H-Ras-transformed HMLE (HMLER) and HMLER-FOXC2 cells were maintained as previously described (Elenbaas et al., 2001) For 4-hydroxy-tamoxifen (4-OHT) treatment, HMLE-Snail-ER or HMLE-Twist-ER cells were exposed to 20 nM 4-OHT for the indicated number of days. MCF7, MDA-MB-231 and SUM159 human breast cancer cells and the 4T1 mouse mammary carcinoma cells were cultured as described. […]

HMLE cells = assay: FOXC2 immunostaining at leading edge of scratched HMLE monolayer; type: cell-based, human; conditions: 9 h post-wound
Experimental: FIGS. 13A-13F: FOXC2 expression correlates with p38 activation in cells with mesenchymal and stem cell properties. […] (B) Cell lysates from the indicated cells were analyzed by immunoblotting for p-p38, p38 and FOXC2. β-actin was used as a loading control. […] Cell lysates were analyzed by immunoblotting for FOXC2. β-actin was used as a loading control (D) The indicated cells were transduced with p38 shRNA (shp38) or control shRNA (shControl). Cell lysates were analyzed by immunoblotting for p38 and FOXC2. β-actin was used as a loading control. […] (F) For the wound healing assay, a confluent monolayer culture of epithelial HMLE cells was scratched with a sterile pipette tip. […] Nuclei were counterstained with DAPI. Scale bar, 20 μm.

[1] = tested on: HMLE-Snail, HMLE-Twist, MDA-MB-231 and SUM159 cells; assay: EMT marker immunoblotting in mesenchymal mammary cells; type: cell-based, human; conditions: relative to vehicle-treated cells
Experimental: It was next ascertained whether p38 inhibition compromises the maintenance of the established EMT phenotype.
Immunoblotting and immunofluorescence (Mani et al., 2008) were performed as previously described. Primary antibodies were as follows: β-actin (Sigma, St Louis, Mo., USA; A3853), mouse anti-human FOXC2 (Dr. Naoyuki Miura, Hamamatsu University School of Medicine, Japan), goat polyclonal anti-FOXC2 (Santa Cruz Biotechnology, Dallas, Tex., USA; sc-21397), p-p38 (Cell Signaling, Danvers, Mass., USA; 4511), p38 (Cell Signaling; 9211), E-cadherin (BD Biosciences, San Jose, Calif., USA; 61081), fibronectin (BD Biosciences; 610077), vimentin (Novus Biologicals, Littleton, Colo., USA; NB200-623), ZEB1 (Novus Biologicals; NBP1-05987), and HA (Covance, Princeton, N.J., USA; MMS-101P).

FOXC2 = FOXC2 transcript levels by qRT-PCR; type: cell-based, human; conditions: treated vs vehicle
Experimental: qRT-PCR was performed using SYBR Green (Applied Biosystems, Waltham, Mass., USA) for mRNAs and Taqman (Applied Biosystems) for microRNAs as described previously (Hollier et al., 2013).

HMLER cells = assay: Scratch/wound-healing assay, HMLER cells expressing FOXC2 variants; type: cell-based, human
Experimental: For this, phosphomimetic FOXC2(S367E) and non-phosphorylatable FOXC2(S367A) mutants were generated and their ability to bestow mesenchymal and stem-cell traits relative to wild-type FOXC2 (referred to as FOXC2) was evaluated.

C[S+]([O-])c1ccc(-c2nc(-c3ccc(F)cc3)c(-c3ccncc3)[nH]2)cc1 (stereo not drawn) [SB203580, 4-(4-Fluorophenyl)-2-(4-methylsulfinylphenyl)-5-(4-pyridyl) 1H-imidazole]
Tumor size (volume and weight) (DU145 cells): no appreciable change in tumor size
Leukemia progression and survival (therapeutic efficacy) (mouse BCR-ABL+ ALL cells): did not slow leukemia progression or prolong survival
FOXC2, mesenchymal and epithelial markers (MCF10A cells): suppresses the upregulation of FOXC2 and mesenchymal markers (fibronectin, vimentin) and prevents downregulation of the epithelial marker E-cadherin
Upregulation of FOXC2 at the leading edge of scratch (HMLE cells): abrogated the upregulation of FOXC2 at the leading edge
Expression of EMT markers [1]: altered the expression of EMT markers
FOXC2 transcript levels (FOXC2): neither SB203580 nor p38 shRNA had a discernible effect on FOXC2 transcript levels
Decrease in wound-closure (HMLER cells; HMLER-FOXC2(S367E) cells): < 30%
Inhibition of migration (wound closure) (HMLER cells; HMLER-FOXC2 cells): > 70%
Inhibition of migration (wound closure) (HMLER cells; HMLER-vector cells): > 70%
